# The supplement of paper PMC9334596
# Test system: mPer2Luc MEF
# Assay: PER2::LUC luminescence relative to vehicle control (fold of vehicle); higher = higher PER2::LUC reporter signal
# Method: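 Secondary dose-response validation of 72 circadian-modulating compounds in mPer2Luc MEFs, threefold dilution series of six doses from 10 uM down to 0.04 uM. PER2::LUC luminescence read at 24 h and 30 h after treatment, normalised to vehicle (DMSO) control.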
# [1] = time after treatment: 24-hour, concentration: 0.04μM
# [2] = time after treatment: 24-hour, concentration: 0.37μM
# [3] = time after treatment: 24-hour, concentration: 3.33μM
# [4] = time after treatment: 24-hour, concentration: 10μM
# [5] = time after treatment: 30-hour, concentration: 0.04μM
# [6] = time after treatment: 30-hour, concentration: 0.37μM
# [7] = time after treatment: 30-hour, concentration: 3.33μM
# [8] = time after treatment: 30-hour, concentration: 10μM
Structure (SMILES),PER2::LUC luminescence [1],PER2::LUC luminescence [2],PER2::LUC luminescence [3],PER2::LUC luminescence [4],PER2::LUC luminescence [5],PER2::LUC luminescence [6],PER2::LUC luminescence [7],PER2::LUC luminescence [8]
COc1cc(C(=O)N2CCC(N3CCN(C)CC3)CC2)ccc1Nc1ncc2c(n1)N(C)c1ccccc1C(=O)N2C [LRRK2-IN-1],0.815,0.751,0.337,0.1,0.817,0.716,0.351,0.098
COc1ccc(C[C@H]2NC[C@H](O)[C@H]2OC(C)=O)cc1 [Anisomycin],0.056,0.032,0.002,0.001,0.06,0.05,0.001,0.001
CCOc1cc(C(=O)N2CCC(N3CCN(C)CC3)CC2)ccc1Nc1ncc2c(n1)N(C1CCCC1)c1ccccc1C(=O)N2C [XMD17-109],0.79,0.698,0.241,0.049,0.796,0.664,0.285,0.055
CN1CCN(C2CCC(n3cc(-c4ccc(Oc5ccccc5)cc4)c4c(N)ncnc43)CC2)CC1 (centres undefined),0.613,0.502,0.203,0.006,0.566,0.477,0.212,0.003
Cc1ccc2nc(NCCN)c3ncc(C)n3c2c1,0.893,0.859,0.768,0.028,0.841,0.784,0.594,0.03
COc1ccc(-c2nc3cc(F)ccc3s2)cc1OC,1.36,1.39,1.36,1.36,1.66,1.69,1.67,1.58
CN(C)C/C=C/C(=O)Nc1cc2c(Nc3ccc(F)c(Cl)c3)ncnc2cc1O[C@H]1CCOC1 [BIBW2992 DiMaleate],0.774,0.77,0.48,0.026,0.705,0.696,0.442,0.028
O=C(/C=C/c1cccnc1)NCCCCC1CCN(C(=O)c2ccccc2)CC1 [FK866],0.987,1.02,0.955,0.89,0.67,0.643,0.595,0.49
O=C(Cc1ccc(-c2ccc(OCCN3CCOCC3)cc2)cn1)NCc1ccccc1 [KX2-391],0.85,0.597,0.429,0.365,0.786,0.627,0.497,0.478
CN1CCN(c2ccc3nc(-c4c(N)c5c(F)cccc5[nH]c4=O)[nH]c3c2)CC1 [Dovitinib (TKI-258)],0.917,0.895,0.651,0.477,0.945,0.895,0.609,0.29
Cc1ccc([C@@H]2O[C@H](CO)[C@@H](O)[C@H](O)[C@H]2O)cc1Cc1ccc(-c2ccc(F)cc2)s1 [Canagliflozin],1.01,0.998,0.985,1.09,0.996,0.996,0.964,0.974
C[C@H](NC(=O)/C(C#N)=C/c1cccc(Br)n1)c1ccccc1 [WP1066],1.1,1.03,1.14,0.142,1.02,1.02,0.891,0.13
COc1ccccc1-c1cc(Nc2cccc(CS(N)(=O)=O)c2)ncn1,0.961,0.968,0.971,0.804,0.841,0.933,0.964,0.982
